Laboratory results published in publication PMC12655351, “Synthesis and Anticancer Activity Evaluation of New 5-((5-Nitrofuran-2-yl)allylidene)-2-thioxo-4-thiazolidinones” (Pharmaceuticals, 2025).
Where a name gives a salt, the structure may show the parent alone. Read-outs that look alike come from different tables or passages of the source.

Experiments:
[1] = test system: MDA-MB-231; experiment: [3H]-thymidine incorporation assay; format: cell-based; settings: Homo sapiens; MDA-MB-231, 24 h of treatment
Method: (§1) Another method of assessing the cytotoxic effects of tested compounds, [^3H]-thymidine incorporation assay, was applied. This method provided the capability to analyze the antiproliferative activity of novel structures on MCF-7 and MDA-MB-231 through their ability to incorporate thymidine into the cells. The acquired results further confirmed the potent activity of the 14b compound as the most prominent structure among the novel compounds (Table 2). The test was carried out in triplicate at concentrations of 5, 15, and 30 μM for the MDA-MB-231 cell line and 1, 5, and 10 μM for the MCF-7 cell line.
(§2) Following the selection of cell lines for further study, the effects of all compounds on cell proliferation were evaluated on MCF-7 and MDA-MB-231 cell lines. Cells were seeded in 24-well plates and cultured as described above. Cells were treated with the compounds at concentrations 1, 5, and 10 μM, and 5, 15, and 30 μM for MCF-7 and MDA-MB-231 cell lines, respectively, for 24 h. Subsequently, 0.5 μCi [^3H]-thymidine was added for 4 h at 37 °C. Then, plates with cells were placed on the ice, the liquid was aspirated, and cells were washed twice with 1mL of 0.05 M Tris-HCl buffer comprising 0.11 M NaCl and precipitated by adding 1 mL per well of 5% trichloroacetic. After precipitation, the cells were dissolved with 1 mL of 0.1 M NaOH with 1% SDS (Sigma-Aldrich, St. Louis, MO, USA) at room temperature (RT). The cell lysates were transferred into scintillation vials containing 2 mL of scintillation fluid (Ultima Gold™ XR, PerkinElmer, MA, USA), and cell-associated radioactivity was measured using a Scintillation Counter 1900 TR, TRI-CARB (Packard, Perkin Elmer, Inc., San Jose, CA, USA). The [^3H]-thymidine uptake was expressed as a percentage of the control value.

[2] = test system: MCF-7; experiment: [3H]-thymidine incorporation assay; format: cell-based; settings: Homo sapiens, MCF7; MCF-7, 24 h of treatment
Method: as §1, §2

[3] = test system: MDA-MB-231; experiment: MTT assay; format: cell-based; settings: Homo sapiens; MDA-MB-231, 24 h of treatment
Method: (§3) The NCI-60 screening protocol utilizes the sulforhodamine B (SRB) assay following 48 h of compound exposure. […] The MTT assay was performed on eleven cancer cell lines: human breast cancer (MDA-MB-231, MCF-7, HCC 1954), human gastric cancer (AGS), human colorectal adenocarcinoma (HT-29, DLD-1, HCT 116), human neuroblastoma (SH SY5Y), and human leukemia (JURKAT, RMPI 8866, K-562) cell lines. The study was conducted in triplicate at the following seven concentrations: 0.62, 1.25, 2.5, 5, 10, 20, and 40 μM.
(§4) The selected cell lines were seeded into 96-well plates and cultured in accordance with the previously described methodology. Then, the cells were treated with all tested compounds and DOX at concentrations of 0.625, 1.25, 2.5, 5.0, 10.0, 20.0, and 40.0 μM for 24 h. A solution of 3-(4,5-dimethyl-2-thiazolyl)-2,5-diphenyl-2H-tetrazolium bromide (Sigma-Aldrich, St. Louis, MO, USA) in phosphate-buffered saline without calcium and magnesium (Corning, Kennebunk, ME, USA) at a concentration of 5 mg/mL was used to carry out MTT assay. After incubation, 20 μL of the prepared MTT solution was added, and then the cells were incubated at 37 °C for two hours. Afterwards, the cells were lysed using 100 μL of lysing buffer (comprising 25 mM HCl, 2% acetic acid, 3% DMF, and 5% SDS, with a pH of 4.7). The absorbance was determined at a wavelength of 570 nm using an Absorbance 96 microplate reader (Byonoy GmbH, Hamburg, Germany).

[4] = test system: AGS; experiment: MTT assay; format: cell-based; settings: Homo sapiens, 24 h of treatment
Method: as §3, §4

[5] = test system: Jurkat; experiment: MTT assay; format: cell-based; settings: Homo sapiens, 24 h of treatment
Method: as §3, §4

[6] = test system: HCC-1954; experiment: MTT assay; format: cell-based; settings: Homo sapiens, HCC1954; HCC-1954, 24 h of treatment
Method: as §3, §4

[7] = test system: K562; experiment: MTT assay; format: cell-based; settings: Homo sapiens; K562, 24 h of treatment
Method: as §3, §4

[8] = test system: HT-29; experiment: MTT assay; format: cell-based; settings: Homo sapiens; HT-29, 24 h of treatment
Method: as §3, §4

[9] = test system: DLD-1; experiment: MTT assay; format: cell-based; settings: Homo sapiens; DLD-1, 24 h of treatment
Method: as §3, §4

[10] = test system: HCT-116; experiment: MTT assay; format: cell-based; settings: Homo sapiens; HCT-116, 24 h of treatment
Method: as §3, §4

[11] = test system: RPMI 8866; experiment: MTT assay; format: cell-based; settings: Homo sapiens; RPMI 8866, 24 h of treatment
Method: as §3, §4

[12] = test system: SH SY5Y; experiment: MTT assay; format: cell-based; settings: Homo sapiens, 24 h of treatment
Method: as §3, §4

[13] = test system: MCF-7; experiment: MTT assay; format: cell-based; settings: Homo sapiens, MCF7; MCF-7, 24 h of treatment
Method: as §3, §4

[14] = test system: reactive oxygen species in MCF-7 cells; experiment: H2DCFDA and DAPI double staining; format: cell-based, human; settings: MCF-7, 1 and 5 μM, one hour
Method: (§5) The double staining method was applied to analyze novel compounds’ effects on the generation of reactive oxygen species. The first dye, H2DCFDA, after conversion to DCF, serves as an indicator of oxidative stress (green fluorescence), while the second one, known as DAPI, was applied to showcase nuclear genetic material of MCF-7 and MDA-MB-231 breast cancer cells (blue fluorescence). The concentrations of compounds were 1 and 5 μM for the MCF-7 cell line and 5 and 10 μM for the MDA-MB-231 cell line. The incubation time after treatment was one hour in both cell lines.
(§6) The influences of 2b, 12b, 14b, and doxorubicin (1 and 5 µM and 5 and 10 µM for MCF-7 and MDA-MB-231 cell lines, respectively) on the generation of reactive oxygen species (ROS) were analyzed. Cells were seeded in 6-well culture plates at 1 × 10^5 cells per well in 1 mL of medium and then treated with compounds for 1 h and then washed with PBS. Double staining was conducted with 20 µM 2′,7′-dichlorodihydrofluorescein diacetate (H2DCFDA) reagent (Thermo Fisher Scientific, Eugene, OR, USA), which is colorless, and is cleaved by intracellular esterases and oxidized to the highly fluorescent 2′,7′-dichlorofluorescein (DCF), and 10 µg/mL of the fluorescent dye 4′,6-diamidino-2-phenylindole (DAPI) (Sigma-Aldrich, St. Louis, MO, USA), which visualizes the nuclear DNA of cells. A Nikon ECLIPSE Ti fluorescence microscope (Nikon, Tokyo, Japan) was used to obtain results which were analyzed using ImageJ software 1.54k (Bethesda, MD, USA). The fluorescence intensity of the DCF reagent was evaluated relative to the control. The number of analyzed cells was above 100.

[15] = test system: reactive oxygen species in MDA-MB-231 cells; experiment: H2DCFDA and DAPI double staining; format: cell-based, human; settings: MDA-MB-231, 5 and 10 μM, one hour
Method: as §5, §6

[16] = test system: MDA-MB-231; settings: cited from earlier work
[17] = test system: MCF-7; settings: cited from earlier work

SMILES	IC50 [1] [µM]	IC50 [2] [µM]	IC50 [3] [µM]	IC50 [4] [µM]	IC50 [5] [µM]	IC50 [6] [µM]	IC50 [7] [µM]	IC50 [8] [µM]	IC50 [9] [µM]	IC50 [10] [µM]	IC50 [11] [µM]	IC50 [12] [µM]	IC50 [13] [µM]	generation of reactive oxygen species [14]	generation of reactive oxygen species [15]	IC50 ([16]; MDA-MB-231 ref 39, read-out: concentration required to inhibit more than 50%) [µM]	IC50 ([17]; MCF-7 ref 39, read-out: concentration required to inhibit more than 50%) [µM]	IC50 ([16]; MDA-MB-231 ref 4, read-out: IC50) [µM]	IC50 ([17]; MCF-7 ref 4, read-out: IC50) [µM]
O=C(O)CN1C(=O)/C(=C/C=C/c2ccc([N+](=O)[O-])o2)SC1=S [1b, 2-((Z)-5-((E)-3-(5-Nitrofuran-2-yl)allylidene)-4-oxo-2-thioxothiazolidin-3-yl)acetic acid]	> 30	> 10	> 40	36.2	1.76	25.3	> 40	22.3	28.8	> 40	> 40	> 40	> 40						
CCC(C(=O)O)N1C(=O)/C(=C/C=C/c2ccc([N+](=O)[O-])o2)SC1=S (centres unmarked) [3b, 2-((Z)-5-((E)-3-(5-Nitrofuran-2-yl)allylidene)-4-oxo-2-thioxothiazolidin-3-yl)butanoic acid]	2.65	7.79	18.5	6.53	14.2	17.6	25.8	30.4	8.03	14.7	35.2	28.5	7.74						
CC(C)CC(C(=O)O)N1C(=O)/C(=C/C=C/c2ccc([N+](=O)[O-])o2)SC1=S (centres unmarked) [7b, 4-Methyl-2-((Z)-5-((E)-3-(5-nitrofuran-2-yl)allylidene)-4-oxo-2-thioxothiazolidin-3-yl)pentanoic acid]	2.19	6.69	16.7	5.55	7.72	6.28	18.5	13.6	7.67	7.98	16.8	15.6	7.13						
CCC(C)C(C(=O)O)N1C(=O)/C(=C/C=C/c2ccc([N+](=O)[O-])o2)SC1=S (centres unmarked) [8b, 3-Methyl-2-((Z)-5-((E)-3-(5-nitrofuran-2-yl)allylidene)-4-oxo-2-thioxothiazolidin-3-yl)pentanoic acid]	1.84	2.21	8.34	3.38	3.19	4.9	7.35	8.04	3.68	4.15	14.2	6.6	2.38						
O=C(O)C(Cc1ccccc1)N1C(=O)/C(=C/C=C/c2ccc([N+](=O)[O-])o2)SC1=S (centres unmarked) [10b, 2-((Z)-5-((E)-3-(5-Nitrofuran-2-yl)allylidene)-4-oxo-2-thioxothiazolidin-3-yl)-3-phenylpropanoic acid]	5.99	7.87	22.9	8.57	6.7	19.1	25.5	28.6	9.29	13.5	16.5	18.9	9.23						
O=C(O)C(Cc1ccc(O)cc1)N1C(=O)/C(=C/C=C/c2ccc([N+](=O)[O-])o2)SC1=S (centres unmarked) [11b, 3-(4-Hydroxyphenyl)-2-((Z)-5-((E)-3-(5-nitrofuran-2-yl)allylidene)-4-oxo-2-thioxothiazolidin-3-yl)propanoic acid]	> 30	> 10	> 40	30.6	17.1	> 40	> 40	> 40	20.3	36.1	27.8	> 40	33.1						
O=C(O)CCCCCCCCCCN1C(=O)/C(=C/C=C/c2ccc([N+](=O)[O-])o2)SC1=S [15b, 11-((Z)-5-((E)-3-(5-nitrofuran-2-yl)allylidene)-4-oxo-2-thioxothiazolidin-3-yl)undecanoic acid]	> 30	3.13	> 40	1.71	1.41	6.23	15.5	9.61	1.76	10.5	11	3.76	4.05						
COc1cccc2c1C(=O)c1c(O)c3c(c(O)c1C2=O)C[C@@](O)(C(=O)CO)C[C@@H]3O[C@H]1C[C@H](N)[C@H](O)[C@H](C)O1 [DOX, Doxorubicin hydrochloride, reference compound]	0.36	1.78	7.53	1.09	0.72	3.14	0.43	0.73	2.83	16.8	0.38	39.9	0.73	fewer effects on reactive oxygen species generation	fewer effects on reactive oxygen species generation				
N.N.[Cl][Pt][Cl] [cisplatin]																~80	~80		
CC(C)C(C(=O)O)N1C(=O)/C(=C/C(Cl)=C/c2ccc([N+](=O)[O-])cc2)SC1=S (centres unmarked) [substructure B, 2-{5-[(Z,2Z)-2-Chloro-3-(4-nitrophenyl)-2-propenylidene]-4-oxo-2-thioxothiazolidin-3-yl}-3-methylbutanoic Acid]																		15.2	5.02
